{
  "source": "patent US12599576B2",
  "about": "(ANTECIP BIOVENTURES II LLC, priority 2022, dated 2026)",
  "key": {"[1]": {"experiment": "Inventor's clinical-trial finding: plasma levels in CYP2D6 poor metabolizers vs other patients after combination of bupropion and dextromethorphan", "conditions": "combination of bupropion and dextromethorphan administered"}, "[2]": {"conditions": "CYP2D6 inhibited by administering quinidine; cited from earlier work"}, "[3]": {"experiment": "Example 3 / FIG. 1: effect of CYP2D6 poor metabolizer status on pharmacokinetics of the tablet after 8 days of twice daily dosing", "conditions": "tablet 45 mg dextromethorphan hydrobromide/105 mg bupropion hydrochloride, 8 days twice daily; reference extensive or ultra-extensive CYP2D6 metabolizers; GMR"}, "[4]": {"system": "patients with agitation associated with Alzheimer's disease", "experiment": "Phase 2/3 randomized, double-blind, controlled clinical trial of DM/BU in agitation associated with Alzheimer's disease", "assay_type": "in vivo, human", "procedure": "A Phase ⅔ randomized, double-blind, controlled, multicenter, U.S. clinical trial was conducted to evaluate the efficacy and safety of DM/BU in patients with agitation associated with Alzheimer's disease. […] An independent data monitoring committee performed an interim futility analysis and recommended no further randomization to the bupropion arm. Subsequently, patients were randomized in a 1:1 ratio to receive DM/BU or placebo. […] The minimum score on the CMAI is 29, corresponding to the total absence of symptoms, with higher scores corresponding to greater agitation. The primary endpoint of the study was the change from baseline in the CMAI total score at Week 5. P-values were calculated based on least square mean estimates.\nInclusion criteria included male or female […], diagnosis of probable Alzheimer's disease, according to the 2011 NIA-AA criteria, diagnosis of agitation, according to the IPA provisional definition of agitation, MMSE score between 10 and 24, an NPI-AA score≥4, and community dwelling. Exclusion criterial included dementia of non-Alzheimer's type and current use of a selective serotonin reuptake inhibitor and/or a serotonin and norepinephrine inhibitor (SSRI/SNRI). Demographics and baseline characteristics are shown in Table 9 of U.S. Pat. No. 10,898,453."}, "[5]": {"experiment": "Solubility in water of the drug substance powder"}},
  "data": [
    {"compound": "COc1ccc2c(c1)[C@]13CCCC[C@@H]1[C@H](C2)N(C)CC3", "note": "[dextromethorphan]", "values": [
      {"measurement": "Cmax and AUC of dextromethorphan in poor metabolizers vs patients who are not poor metabolizers", "setting": "[1]", "result": "significantly higher"},
      {"measurement": "AUC0-12 of dextromethorphan higher for CYP2D6 poor metabolizers compared to non-poor metabolizers", "setting": "[2]", "result": "about 46%"},
      {"measurement": "Cmax of dextromethorphan higher for poor metabolizers compared to non-poor metabolizers", "setting": "[2]", "result": "about 40%"},
      {"measurement": "increase in dextromethorphan AUC0-12 for CYP2D6 poor metabolizers", "setting": "[3]", "result": 3.40, "unit": "fold"},
      {"measurement": "increase in dextromethorphan Cmax for CYP2D6 poor metabolizers", "setting": "[3]", "result": 3.00, "unit": "fold"}
    ]},
    {"compound": "CC(NC(C)(C)C)C(=O)c1cccc(Cl)c1", "note": "(centres unmarked) [bupropion]", "values": [
      {"measurement": "mean reduction from baseline in CMAI total score", "setting": "[4]; Week 5 (primary endpoint), placebo 11.5, DM/BU vs placebo p=0.010", "result": 10.0, "unit": "points"},
      {"measurement": "adverse event: diarrhea", "setting": "[4]; both, human, in vivo, 5 weeks", "result": 6.1, "unit": "%"},
      {"measurement": "adverse event: dizziness", "setting": "[4]; both, human, in vivo, 5 weeks", "result": 10.2, "unit": "%"},
      {"measurement": "adverse event: somnolence", "setting": "[4]; both, human, in vivo, 5 weeks", "result": 4.1, "unit": "%"},
      {"measurement": "rate of discontinuation due to adverse events", "setting": "[4]; both, human, in vivo, 5 weeks", "result": 2.0, "unit": "%"},
      {"measurement": "serious adverse events reported, patients", "setting": "[4]; both, human, in vivo, 5 weeks", "result": 8.2, "unit": "%"},
      {"measurement": "deaths in arm", "setting": "[4]; one death in the placebo arm", "result": "one"}
    ]},
    {"compound": "Br.COc1ccc2c(c1)[C@]13CCCC[C@@H]1[C@H](C2)N(C)CC3", "note": "[Dextromethorphan hydrobromide, morphinan, 3-methoxy-17-methyl-, (9α, 13α, 14α), hydrobromide monohydrate]", "values": [
      {"measurement": "solubility in water", "setting": "[5]", "result": "sparingly soluble in water"}
    ]},
    {"compound": "CC(NC(C)(C)C)C(=O)c1cccc(Cl)c1.Cl", "note": "(racemic) [Bupropion hydrochloride, (±)-1-(3-chlorophenyl)-2-[(1,1-dimethylethyl)amino]-1-propanone hydrochloride]", "values": [
      {"measurement": "solubility in water", "setting": "[5]", "result": "highly soluble in water"}
    ]}
  ]
}
